Where “and” joins values, the source holds several entries; their conditions need not be identical. Equal values may be shown once.
What was measured:
A549 lung adenocarcinoma = experiment: MTT assay, A549; format: cell-based; details: A549, 10 μM, 48 h
Description: (§1) To evaluate the cytotoxicity of the novel USP‐7 inhibitors, compounds 1a–d were preliminary screened at a fixed concentration of 10 μM against eight different cancer cell lines (namely, MCF7 breast adenocarcinoma, SKOV‐3 ovarian adenocarcinoma, Hep‐G2 hepatocellular carcinoma, SK‐Mel28 cutaneous melanoma, MDA‐MB‐231 breast adenocarcinoma, SK‐BR3 breast adenocarcinoma, HeLa cervix epithelioid carcinoma, and A549 lung adenocarcinoma) as well as nonmutated human embryonic fibroblasts (GM‐6114). Cisplatinum (Cis‐Pt) was used as the reference compound.
(§2) To perform the MTT assay, SK‐BR3 (breast adenocarcinoma, Biologic Bank and Cell Factory, IRCCS Policlinico San Martino, Genoa, Italy), MCF‐7 (breast adenocarcinoma, Biologic Bank and Cell Factory, IRCCS Policlinico San Martino, Genoa, Italy), SK‐Mel28 (skin melanoma, Biologic Bank and Cell Factory, IRCCS Policlinico San Martino, Genoa, Italy), Hep‐G2 (hepatocellular carcinoma, ATCC, Manassas, VA), SKOV‐3 (ovarian adenocarcinoma, ATCC, Manassas, VA), MDA‐MB‐231 (breast adenocarcinoma, Biologic Bank and Cell Factory, IRCCS Policlinico San Martino, Genoa, Italy), HeLa (cervical adenocarcinoma, Biologic Bank and Cell Factory, IRCCS Policlinico San Martino, Genoa, Italy), A549 (lung adenocarcinoma, ATCC, Manassas, VA), and GM‐6114 (normal human embryonic fibroblast, ATCC, Manassas, VA) cell lines were cultured in Dulbecco's modified eagle medium (DMEM added with 10% Fetal bovine serum, 2 mM Glutamine, and 1% pen‐strep) and incubated in a humidified environment at 37 °C with 5% CO2. Reagents were acquired from EuroClone (Milan, Italy). All chemical compounds were dissolved in DMSO to give a 10 mM stock solution. Then, after an intermediate dilution in growth medium, they were added to the cultured cells at a final working concentration of 10 μM and incubated for 48 h. At the end of the incubation, 30 μL of MTT (3‐(4,5‐dimethyl‐2‐thiazolyl)‐2,5‐diphenyl‐2H‐tetrazolium bromide) at a concentration of 2 mg mL^−1 in phosphate buffered saline (PBS) were added into each well and further incubated for 4 h. Finally, the supernatants were removed and 100 μL well of DMSO were added to each well to dissolve the Formazan precipitates. After 20 min, plates were read at 570 nm. Results are expressed as the percentage of the control samples where cells have been treated with the same amount of DMSO but without any chemical compound. The assay was repeated three times, and a single compound was tested six times. Means and standard deviations were calculated.

[1] = tested on: Hep‐G2 hepatocellular carcinoma; experiment: MTT assay, Hep‐G2; format: cell-based; details: Hep‐G2, 10 μM, 48 h
Description: as §1, §2

[2] = tested on: HeLa cervix epithelioid carcinoma; experiment: MTT assay, HeLa; format: cell-based; details: 10 μM, 48 h
Description: as §1, §2

[3] = tested on: SKOV‐3 ovarian adenocarcinoma; experiment: MTT assay, SKOV‐3; format: cell-based; details: SKOV‐3, 10 μM, 48 h
Description: as §1, §2

recombinant USP‐7 = target: T1, recombinant USP‐7 (Homo sapiens, UniProt Q93009); experiment: USP‐7 fluorescence-based enzymatic assay (Ub‐AMC); format: biochemical; details: recombinant USP‐7, Ubiquitin–AMC substrate, 30 min preincubation; average of three separate experiments
T1 construct: purchased BPS Bioscience 79,256
Description: The inhibition efficiency of compounds 1a–d and 2a–d on the USP‐7 enzyme was assessed using a fluorescence‐based enzymatic assay, employing Ubiquitin–AMC as a substrate. In this assay, USP‐7 hydrolyzes Ubiquitin–AMC, leading to an increase in fluorescence signal. To evaluate the inhibitory potential, recombinant USP‐7 was preincubated with varying concentrations of the test compounds before adding the substrate, and fluorescence intensity was subsequently measured. […] Additionally, the elongation of the side chain in compounds 2a–d completely abolished the activity.
In vitro enzymatic inhibition was measured using the USP‐7 inhibitor screening assay kit (catalog #79,256, BPS Bioscience, San Diego, CA, USA) according to the manufacturer's instructions. Briefly, compound stock solutions were prepared in DMSO and diluted tenfold to obtain the working solutions. Then, these solutions and the vehicle control were added to the black 384‐wells plate, together with the USP‐7 enzyme, previously diluted as required by the manufacturer, and incubated at rt for 30 min. Then, the Ub‐AMC substrate was diluted 400‐fold and added to the plate, followed by incubation at rt for 30 min. The final DMSO amount in each well was 1%.

[4] = tested on: SK‐BR3 breast adenocarcinoma; experiment: MTT assay, SK‐BR3; format: cell-based; details: SK‐BR3, 10 μM, 48 h
Description: as §1, §2

[5] = tested on: MCF7 breast adenocarcinoma; experiment: MTT assay, MCF7; format: cell-based; details: MCF7, 10 μM, 48 h
Description: as §1, §2

[6] = tested on: SK‐Mel28 cutaneous melanoma; experiment: MTT assay, SK‐Mel28; format: cell-based; details: SK‐Mel28, 10 μM, 48 h
Description: as §1, §2

[7] = tested on: nonmutated human embryonic fibroblasts (GM‐6114); experiment: MTT assay, GM‐6114; format: cell-based; details: GM‐6114 healthy fibroblasts, 10 μM, 48 h
Description: as §1, §2

[8] = tested on: MDA‐MB‐231 breast adenocarcinoma; experiment: MTT assay, MDA‐MB‐231; format: cell-based; details: MDA‐MB‐231, 10 μM, 48 h
Description: as §1, §2

[9] = tested on: neuroblastoma HTLA‐230 cells; design: method as in PMID 36780313; details: cited from earlier work
USP‐7 = tested on: USP‐7; design: method as in PMID 37298148; details: in vitro and in‐cell assays, neuroblastoma‐related cells; cited from earlier work
[10] = Parallel artificial membrane permeability assay (PAMPA); format: in vitro ADME; details: for LogPe ± SD: PBS pH 7.4, 5 h
Description: The assay was prepared as follows: 300 μL of PBS pH 7.4 (5% DMSO) was placed in the acceptor wells. A phosphatidylcholine (PC) solution was obtained by dissolving and vortexing PC at 1% w/v in dodecane and solubilized using an ultrasound bath until a clear solution was obtained. […] of this solution was deposited on the membrane portion of the donor well. 150 μL of each molecule, at 100–250 μM final concentration (5% DMSO), was pipetted in the […]. The acceptor (Multiscreen transport Receiver Plate, 96‐well, polystyrene, Millipore) and donor plates (Multiscreen Filter Plates, IP, […], clear, hydrophobic PVDF, Millipore) were subsequently assembled and incubated for 5 h under gentle orbital shaking. The experiment was conducted in duplicate. Lucifer yellow was used as a negative control to establish the integrity of the membrane, quantifying its concentration in both acceptor and donor solutions using fluorescence. […] The results are expressed as means ± SEM of at least three independent experiments.

T1 sequence (Q93009 whole entry): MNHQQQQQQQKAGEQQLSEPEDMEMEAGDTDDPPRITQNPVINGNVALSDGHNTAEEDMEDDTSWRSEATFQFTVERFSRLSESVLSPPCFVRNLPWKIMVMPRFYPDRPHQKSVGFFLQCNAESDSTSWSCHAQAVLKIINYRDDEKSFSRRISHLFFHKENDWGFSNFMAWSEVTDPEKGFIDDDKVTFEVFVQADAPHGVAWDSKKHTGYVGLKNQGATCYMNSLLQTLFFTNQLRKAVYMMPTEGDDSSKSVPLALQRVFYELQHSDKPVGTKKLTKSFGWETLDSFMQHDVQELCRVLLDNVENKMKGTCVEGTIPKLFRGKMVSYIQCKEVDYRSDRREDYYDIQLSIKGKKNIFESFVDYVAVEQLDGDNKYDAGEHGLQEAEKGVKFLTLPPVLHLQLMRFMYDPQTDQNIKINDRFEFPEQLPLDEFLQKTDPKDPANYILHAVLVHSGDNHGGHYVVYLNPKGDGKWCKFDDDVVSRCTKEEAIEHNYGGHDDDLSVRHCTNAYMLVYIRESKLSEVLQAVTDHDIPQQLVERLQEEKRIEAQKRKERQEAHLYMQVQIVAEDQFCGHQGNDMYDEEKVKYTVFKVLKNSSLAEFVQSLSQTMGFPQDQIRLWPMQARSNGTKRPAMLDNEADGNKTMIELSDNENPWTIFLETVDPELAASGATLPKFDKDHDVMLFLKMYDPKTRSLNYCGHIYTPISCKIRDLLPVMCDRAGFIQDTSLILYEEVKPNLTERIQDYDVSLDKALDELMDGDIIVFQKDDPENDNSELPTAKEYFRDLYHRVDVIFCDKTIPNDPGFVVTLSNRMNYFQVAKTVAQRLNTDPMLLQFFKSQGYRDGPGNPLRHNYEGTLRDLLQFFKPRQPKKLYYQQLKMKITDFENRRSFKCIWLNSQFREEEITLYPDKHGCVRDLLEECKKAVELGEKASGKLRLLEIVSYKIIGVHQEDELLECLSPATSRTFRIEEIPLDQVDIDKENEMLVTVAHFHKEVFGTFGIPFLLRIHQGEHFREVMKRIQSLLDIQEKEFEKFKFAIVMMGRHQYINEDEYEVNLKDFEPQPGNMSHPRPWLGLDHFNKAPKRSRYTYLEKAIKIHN

In the case of `CCOC(=O)c1cnn(CC(C)OC(=O)Nc2cccc(F)c2)c1N` (stereo not drawn) [Compound 1b, Ethyl 5‐Amino‐1‐(2‐(((3‐Fluorophenyl)Carbamoyl)Oxy)Propyl)‐1H‐Pyrazole‐4‐Carboxylate], the “Cell growth percent [%]” value (A549 lung adenocarcinoma) is reported as 39% and 39.06%, the “Cell growth percent [%]” value [1] is reported as 95.70% and the “Cell growth percent [%]” value [2] is reported as 95.63%. For the same molecule, the “Cell growth percent [%]” value [3] was 98.78%, the IC50 (recombinant USP‐7) was 1.48 ± 0.31 µM and the “Cell growth percent [%]” value [4] was 135.91%. For the same molecule, the “Cell growth percent [%]” value [5] was 104.08%, the “Cell growth percent [%]” value [6] was 115.09% and the “Cell growth percent [%]” value [7] was 68.07%. For the same molecule, the “Cell growth percent [%]” value [8] was 73.53%.
For `CCOC(=O)c1cnn(CC(C)OC(=O)Nc2ccc(F)cc2)c1N` (stereo not drawn) [Compound 1c, Ethyl 5‐Amino‐1‐(2‐(((4‐Fluorophenyl)Carbamoyl)Oxy)Propyl)‐1H‐Pyrazole‐4‐Carboxylate], the “Cell growth percent [%]” value (A549 lung adenocarcinoma) was 114.96%, the “Cell growth percent [%]” value [1] was 100.11% and the “Cell growth percent [%]” value [2] was 108.28%. For the same molecule, the “Cell growth percent [%]” value [3] was 99.94%, the IC50 (recombinant USP‐7) was 1.8 ± 0.39 µM and the “Cell growth percent [%]” value [4] was 101.55%. The “Cell growth percent [%]” value [5] was 108.02%, the “Cell growth percent [%]” value [6] was 88.22% and the “Cell growth percent [%]” value [7] was 112.09%. The “Cell growth percent [%]” value [8] was 103.39%.
In the case of `CCOC(=O)c1cnn(CC(C)O)c1NC(=O)Nc1cccc(F)c1` (stereo not drawn) [STIRUR‐41, reference compound], the “inhibition of migratory ability” value [9] is listed as “significant inhibition”, the “Cell growth percent [%]” value (A549 lung adenocarcinoma) is listed as 38.88% and the “Cell growth percent [%]” value [1] is listed as 111.36%. The “inhibition of USP‐7 enzymatic activity and expression levels” value (USP‐7) was “inhibit both the enzymatic activity of USP‐7 and its expression levels”, the “Cell growth percent [%]” value [2] was 99.83% and the “Cell growth percent [%]” value [3] was 100.50%. The IC50 (recombinant USP‐7) was 2.77 ± 0.56 µM, the “Cell growth percent [%]” value [4] was 97.17% and the “Cell growth percent [%]” value [5] was 110.71%. For the same molecule, the “Cell growth percent [%]” value [6] was 94.26%, the “Cell growth percent [%]” value [7] was 38.50% and the “Cell growth percent [%]” value [8] was 64.32%.
For `CCOC(=O)c1cnn(CC(C)OC(=O)Nc2cccc(C(F)(F)F)c2)c1N` (stereo not drawn) [Compound 1d, Ethyl 5‐Amino‐1‐(2‐(((3‐(Trifluoromethyl)Phenyl)Carbamoyl)Oxy)Propyl)‐1H‐Pyrazole‐4‐Carboxylate], the “Cell growth percent [%]” value (A549 lung adenocarcinoma) was 90.69%, the “Cell growth percent [%]” value [1] was 100.73% and the “Cell growth percent [%]” value [2] was 106.40%. For the same molecule, the “Cell growth percent [%]” value [3] was 99.40%, the “LogPe ± SD” value ([10]; 100 μM) was −4.54 ± 0.02 and the “LogPe ± SD” value ([10]; 250 μM) was −4.81 ± 0.00. For the same molecule, the “membrane permeability (in words)” value ([10]; 100 and 250 μM) was “highly permeable”, the IC50 (recombinant USP‐7) was 1.31 ± 0.21 µM and the “Cell growth percent [%]” value [4] was 95.04%. The “Cell growth percent [%]” value [5] was 113.85%, the “Cell growth percent [%]” value [6] was 90.77% and the “Cell growth percent [%]” value [7] was 96.18%. For the same molecule, the “Cell growth percent [%]” value [8] was 119.94%.
For `N.N.[Cl][Pt][Cl]` [Cis ‐Pt, Cisplatinum, reference compound], the “Cell growth percent [%]” value (A549 lung adenocarcinoma) was 59.09%, the “Cell growth percent [%]” value [1] was 38.07% and the “Cell growth percent [%]” value [2] was 29.33%. The “Cell growth percent [%]” value [3] was 26.83%, the “Cell growth percent [%]” value [4] was 70.59% and the “Cell growth percent [%]” value [5] was 72.74%. For the same molecule, the “Cell growth percent [%]” value [6] was 44.40% and the “Cell growth percent [%]” value [8] was 86.07%.
For `CCOC(=O)c1cnn(CC(C)OC(=O)Nc2ccccc2F)c1N` (stereo not drawn) [Compound 1a, Ethyl 5‐Amino‐1‐(2‐(((2‐Fluorophenyl)Carbamoyl)Oxy)Propyl)‐1H‐Pyrazole‐4‐Carboxylate], the “Cell growth percent [%]” value (A549 lung adenocarcinoma) was 104.43%, the “Cell growth percent [%]” value [1] was 97.50% and the “Cell growth percent [%]” value [2] was 105.06%. The “Cell growth percent [%]” value [3] was 102.26%, the IC50 (recombinant USP‐7) was 2.19 ± 0.49 µM and the “Cell growth percent [%]” value [4] was 98.76%. The “Cell growth percent [%]” value [5] was 109.46%, the “Cell growth percent [%]” value [6] was 95.28% and the “Cell growth percent [%]” value [7] was 105.96%. The “Cell growth percent [%]” value [8] was 106.29%.
